pIC50: −log10 of the molar value.
System: 282377-053-R-J1-PDC complex spheroids, viability
Assay: Anticancer human tumor 282377-053-R-J1-PDC patient-derived colon adenocarcinoma cell line growth inhibition [GQUAD]
Conditions: for pIC50: curve of first compound; for viability, T/C: stronger effect = lower value
Procedure, shortened: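 Tumor cells were grown as complex spheroids with HUVEC endothelial cells and mesenchymal stem cells as stroma. G-quadruplex stabilizers were combined with targeted agents over half-log dilutions from near the clinical Cmax, or from 10 microM.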

[1] = second compound 0.0316 µM, first compound 0.0316 µM
[2] = second compound 0.0316 µM, first compound 0.1 µM
[3] = second compound 0.0316 µM, first compound 0.316 µM
[4] = second compound 0.0316 µM, first compound 1 µM
[5] = second compound 0.0316 µM, first compound 3.16 µM
[6] = second compound 0.0316 µM, first compound 10 µM
[7] = second compound 0.1 µM, first compound 0.0316 µM
[8] = second compound 0.1 µM, first compound 0.1 µM
[9] = second compound 0.1 µM, first compound 0.316 µM
[10] = second compound 0.1 µM, first compound 1 µM
[11] = second compound 0.1 µM, first compound 3.16 µM
[12] = second compound 0.1 µM, first compound 10 µM
[13] = second compound 0.316 µM, first compound 0.0316 µM
[14] = second compound 0.316 µM, first compound 0.1 µM
[15] = second compound 0.316 µM, first compound 0.316 µM
[16] = second compound 0.316 µM, first compound 1 µM
[17] = second compound 0.316 µM, first compound 3.16 µM
[18] = second compound 0.316 µM, first compound 10 µM
[19] = second compound 1 µM, first compound 0.0316 µM
[20] = second compound 1 µM, first compound 0.1 µM
[21] = second compound 1 µM, first compound 0.316 µM
[22] = second compound 1 µM, first compound 1 µM
[23] = second compound 1 µM, first compound 3.16 µM
[24] = second compound 1 µM, first compound 10 µM
[25] = second compound 3.16 µM, first compound 0.0316 µM
[26] = second compound 3.16 µM, first compound 0.1 µM
[27] = second compound 3.16 µM, first compound 0.316 µM
[28] = second compound 3.16 µM, first compound 1 µM
[29] = second compound 3.16 µM, first compound 3.16 µM
[30] = second compound 3.16 µM, first compound 10 µM
[31] = second compound 10 µM, first compound 0.0316 µM
[32] = second compound 10 µM, first compound 0.1 µM
[33] = second compound 10 µM, first compound 0.316 µM
[34] = second compound 10 µM, first compound 1 µM
[35] = second compound 10 µM, first compound 3.16 µM
[36] = second compound 10 µM, first compound 10 µM
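Further: spheroids exposed to compounds for 7 days before readout.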
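Wherever viability, T/C is given: percent of vehicle DMSO control viability with 100% = untreated-like growth.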

Compound: C=CCn1c(=O)c2cnc(Nc3ccc(N4CCN(C)CC4)cc3)nc2n1-c1cccc(C(C)(C)O)n1 + CN(C)c1ccc(Nc2c3ccc(NC(=O)CCN4CCCC4)cc3nc3cc(NC(=O)CCN4CCCC4)ccc23)cc1
- pIC50 (second compound 0.0316 µM): 5.72
- pIC50 (second compound 0.1 µM): 5.70
- pIC50 (second compound 0.316 µM): 5.69
- pIC50 (second compound 1 µM): 5.73
- pIC50 (second compound 3.16 µM): 5.74
- pIC50 (second compound 10 µM): 5.63
- viability, T/C [1]: 94.2%
- viability, T/C [2]: 99.9%
- viability, T/C [3]: 83.3%
- viability, T/C [4]: 75.2%
- viability, T/C [5]: 30.8%
- viability, T/C [6]: 16.7%
- viability, T/C [7]: 108%
- viability, T/C [8]: 95.3%
- viability, T/C [9]: 82.7%
- viability, T/C [10]: 73.3%
- viability, T/C [11]: 33.9%
- viability, T/C [12]: 15.1%
- viability, T/C [13]: 105%
- viability, T/C [14]: 84.8%
- viability, T/C [15]: 74.5%
- viability, T/C [16]: 90.1%
- viability, T/C [17]: 26.5%
- viability, T/C [18]: 16.1%
- viability, T/C [19]: 85.2%
- viability, T/C [20]: 90.9%
- viability, T/C [21]: 94.2%
- viability, T/C [22]: 76.4%
- viability, T/C [23]: 27.5%
- viability, T/C [24]: 16.7%
- viability, T/C [25]: 92.8%
- viability, T/C [26]: 82.5%
- viability, T/C [27]: 92.8%
- viability, T/C [28]: 68.5%
- viability, T/C [29]: 31.8%
- viability, T/C [30]: 16.1%
- viability, T/C [31]: 86.7%
- viability, T/C [32]: 78.3%
- viability, T/C [33]: 104%
- viability, T/C [34]: 78.4%
- viability, T/C [35]: 39.1%
- viability, T/C [36]: 15.3%

Compound: CC(C)n1c(=O)n(C)c2cnc3cc(F)c(-c4ccc(OCCCN5CCCCC5)nc4)cc3c21 + Cc1[nH]c2ccc(F)cc2c1-c1nc2c3cccnc3c3ncccc3c2[nH]1
- pIC50 (second compound 0.0316 µM): < 5.00
- pIC50 (second compound 0.1 µM): < 5.00
- pIC50 (second compound 0.316 µM): < 5.00
- pIC50 (second compound 1 µM): < 5.00
- pIC50 (second compound 3.16 µM): 5.21
- pIC50 (second compound 10 µM): 7.36
- viability, T/C [1]: 123%
- viability, T/C [2]: 91.5%
- viability, T/C [3]: 123%
- viability, T/C [4]: 104%
- viability, T/C [5]: 101%
- viability, T/C [6]: 94.1%
- viability, T/C [7]: 101%
- viability, T/C [8]: 118%
- viability, T/C [9]: 94.2%
- viability, T/C [10]: 88.6%
- viability, T/C [11]: 118%
- viability, T/C [12]: 92.6%
- viability, T/C [13]: 132%
- viability, T/C [14]: 115%
- viability, T/C [15]: 100%
- viability, T/C [16]: 112%
- viability, T/C [17]: 108%
- viability, T/C [18]: 91.5%
- viability, T/C [19]: 106%
- viability, T/C [20]: 116%
- viability, T/C [21]: 107%
- viability, T/C [22]: 112%
- viability, T/C [23]: 98.4%
- viability, T/C [24]: 93%
- viability, T/C [25]: 89%
- viability, T/C [26]: 78.8%
- viability, T/C [27]: 86.7%
- viability, T/C [28]: 66.3%
- viability, T/C [29]: 73.6%
- viability, T/C [30]: 36.5%
- viability, T/C [31]: 53%
- viability, T/C [32]: 40.7%
- viability, T/C [33]: 44.3%
- viability, T/C [34]: 29.6%
- viability, T/C [35]: 23.9%
- viability, T/C [36]: 19%

Compound: CC1COCCN1c1cc(-c2ccnn2C)c2ccnc(-c3ccn[nH]3)c2n1 (stereo unspecified) + Cc1[nH]c2ccc(F)cc2c1-c1nc2c3cccnc3c3ncccc3c2[nH]1
- pIC50 (second compound 0.0316 µM): 6.18
- pIC50 (second compound 0.1 µM): 6.30
- pIC50 (second compound 0.316 µM): 6.40
- pIC50 (second compound 1 µM): 6.34
- pIC50 (second compound 3.16 µM): 7.40
- pIC50 (second compound 10 µM): > 7.50
- viability, T/C [1]: 83.8%
- viability, T/C [2]: 82.6%
- viability, T/C [3]: 73.3%
- viability, T/C [4]: 36.4%
- viability, T/C [5]: 27.5%
- viability, T/C [6]: 20.9%
- viability, T/C [7]: 79.3%
- viability, T/C [8]: 85%
- viability, T/C [9]: 56.5%
- viability, T/C [10]: 37.3%
- viability, T/C [11]: 24.2%
- viability, T/C [12]: 19.7%
- viability, T/C [13]: 103%
- viability, T/C [14]: 77.5%
- viability, T/C [15]: 49.4%
- viability, T/C [16]: 37.7%
- viability, T/C [17]: 30.5%
- viability, T/C [18]: 17.6%
- viability, T/C [19]: 87.2%
- viability, T/C [20]: 79.3%
- viability, T/C [21]: 59%
- viability, T/C [22]: 31.9%
- viability, T/C [23]: 21.5%
- viability, T/C [24]: 18.8%
- viability, T/C [25]: 52.9%
- viability, T/C [26]: 38.6%
- viability, T/C [27]: 12.8%
- viability, T/C [28]: 8.91%
- viability, T/C [29]: 4.88%
- viability, T/C [30]: 4.03%
- viability, T/C [31]: 35.6%
- viability, T/C [32]: 23.9%
- viability, T/C [33]: 9.76%
- viability, T/C [34]: 5.71%
- viability, T/C [35]: 3.51%
- viability, T/C [36]: 2.86%
